# In patent US8865894B2, “Oxazolidin-2-one compounds and uses thereof” (Novartis AG, priority 2012, dated 2014):
# pIC50: −log10 of the molar value.
# Molecular target: T1, human PI3Kδ (Homo sapiens, UniProt O00329)
# T1 construct: made in house
# T1 sequence (O00329 2-1044 limits assumed): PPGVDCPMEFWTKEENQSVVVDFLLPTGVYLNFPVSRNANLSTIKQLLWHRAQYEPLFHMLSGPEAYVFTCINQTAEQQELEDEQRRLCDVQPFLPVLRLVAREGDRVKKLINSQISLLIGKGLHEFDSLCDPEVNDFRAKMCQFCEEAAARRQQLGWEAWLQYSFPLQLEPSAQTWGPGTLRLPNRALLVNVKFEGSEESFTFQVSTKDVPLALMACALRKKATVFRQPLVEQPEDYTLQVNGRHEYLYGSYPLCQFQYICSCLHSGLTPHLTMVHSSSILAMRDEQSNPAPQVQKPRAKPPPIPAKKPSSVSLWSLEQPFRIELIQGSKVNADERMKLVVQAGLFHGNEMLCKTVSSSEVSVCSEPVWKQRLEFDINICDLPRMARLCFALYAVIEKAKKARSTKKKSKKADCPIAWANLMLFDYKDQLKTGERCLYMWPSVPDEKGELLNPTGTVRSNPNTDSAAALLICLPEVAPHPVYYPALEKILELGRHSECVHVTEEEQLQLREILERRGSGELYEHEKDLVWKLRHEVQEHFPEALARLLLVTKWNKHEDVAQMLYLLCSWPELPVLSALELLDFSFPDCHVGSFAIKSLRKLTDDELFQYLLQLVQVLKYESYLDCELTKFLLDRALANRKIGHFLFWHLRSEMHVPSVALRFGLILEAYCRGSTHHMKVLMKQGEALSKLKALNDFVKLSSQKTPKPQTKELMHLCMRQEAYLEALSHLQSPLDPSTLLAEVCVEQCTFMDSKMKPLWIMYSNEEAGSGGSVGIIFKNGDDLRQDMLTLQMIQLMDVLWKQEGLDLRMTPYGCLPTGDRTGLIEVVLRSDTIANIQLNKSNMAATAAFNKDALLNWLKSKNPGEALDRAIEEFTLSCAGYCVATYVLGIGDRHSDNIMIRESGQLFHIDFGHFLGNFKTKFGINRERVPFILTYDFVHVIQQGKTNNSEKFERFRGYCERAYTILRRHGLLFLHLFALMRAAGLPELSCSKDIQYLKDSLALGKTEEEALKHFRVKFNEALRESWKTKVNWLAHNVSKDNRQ
# Assay: Biochemical PI3Kdelta (TR-FRET Adapta Universal Kinase Assay)
# Details: mean of n measurements, read-out: PIK3d/ IC50
# Description: Test compounds were dissolved in DMSO (10 mM) and transferred into 1.4 mL flat bottom or V-shaped Matrix tubes carrying a unique 2D matrix chip by individual Novartis compound hubs. The numbers of these chips were distinctively linked to Novartis Pharma Numbers. The stock solutions were stored at −20° C. if not used immediately. For the test procedure the vials were defrosted and identified by a scanner whereby a working sheet was generated that guided the subsequent working steps.
# Compounds were either manually diluted in DMSO for individual experiments (96 wells enabling 10 cpds at 8 (single points) concentrations) as described in or prepared as described below if tested for profiling in 384-wells. This format enabled the assay of maximally 40 individual test compounds at 8 concentrations (single points) including 4 reference compounds. The dilution protocol included the production of “pre-dilution plates”, “master plates” and “assay plates”.
# 96 polypropylene well plates were used as pre-dilution plates. A total of 4 pre-dilution plates were prepared including 10 test compounds each on the plate positions A1-A10, one standard compound at A11 and one DMSO control at A12. Programs have been written to run these pipetting steps on the HamiltonSTAR robots.
# Identical “assay plates” were then prepared by pipetting 50 nL each of compound dilutions of the “master plates” into 384-well “assay plates”. The compounds were mixed with 4.5 μL of assays components plus 4.5 μL enzyme corresponding to a 1:181 dilution enabling the final concentration of 10, 3.0, 1.0, 0.3, 0.1, 0.03, 0.01 and 0.003 μM, respectively. The preparation of the “master plates” was handled by the Matrix PlateMate Plus robot and replication of “assay plates” by the HummingBird robot.
# Catalytically active human PI3Kα, PI3Kβ, PI3Kδ, and mTOR were cloned, expressed and purified as described (Maira S M, Stauffer F, Brueggen J, Furet P, Schnell C, Fritsch C, Brachmann S, Chène P, de Pover A, Schoemaker K, Fabbro D, Gabriel D, Simonen M, Murphy L, Finan P, Sellers W, García-Echeverría C (2008), Mol Cancer Ther. 7:1851-63 and Maira S M, Pecchi S, Brueggen J, Huh K, Schnell C, Fritsch C, Nagel T, Wiesmann M, Brachmann S, Dorsch M, Chène P, Schoemaker K, De Pover A, Menezes D, Fabbro D, Sellers W, García-Echeverría C, Voliva C F (2011), Mol. Cancer Ther. accepted).
# The TR-FRET Adapta™ Universal Kinase Assay Kit was purchased from Invitrogen Corporation (Carlsbad/CA, USA) (Cat. No. PV5099). The kit contains the following reagents: Adapta Eu-anti-ADP Antibody (Europium labeled anti-ADP antibody in HEPES buffered saline, Cat. No. PV5097), Alexa Fluor® 647-labeled ADP tracer (Alexa Fluor® 647-labeled ADP tracer in HEPES buffered saline, Cat. No. PV5098), proprietary TR-FRET dilution buffer pH 7.5 (Cat. No. PV3574).
# PIK3CD substrate Phosphatidylinositol was obtained from Invitrogen (vesicules consisting of 2 mM PI in 50 mM HEPES pH7.5; Cat. No. PV5371). PIK3CG substrate Phosphatidylinositol-4,5-bisphosphate (PIP(4,5)2 was obtained from Invitrogen (PIP2:PS large unilamellar vesicules consisting of 1 mM PIP2: 19 mM PS in 50 mM HEPES pH7.5, 3 mM MgCl2, 1 mM EGTA; Cat. No. PV5100).
# Time-Resolved Fluorescence Resonance Energy Transfer (TR-FRET) is a technology based on energy transfer between two adjacent dyes, from an excited electron in one dye (the donor) to an electron of an adjacent dye (the acceptor) through resonance, then released as a photon. This energy transfer is detected by an increase in the fluorescence emission of the acceptor, and a decrease in the fluorescence emission of the donor. TR-FRET assays for protein kinases use a long-lifetime lanthanide Terbium or Europium chelates as the donor species which overcome interference from compound autofluorescence or light scatter from precipitated compounds, by introducing a delay after excitation by a flashlamp excitation source. Results are often expressed as a ratio of the intensities of the acceptor and donor fluorophores.
row,pIC50,Compound
1,7.64,"Nc1ncc(-c2cc(N3C[C@H](CO)OC3=O)nc(N3CCOCC3)n2)c(C(F)(F)F)n1 [Example 20, (R)-3-(2′-Amino-2-morpholin-4-yl-4′-trifluoromethyl-[4,5′]bipyrimidinyl-6-yl)-5-hydroxymethyl-oxazolidin-2-one]"
2,7.77,"Nc1ncc(-c2cc(N3C(=O)O[C@H]4COC[C@H]43)nc(N3CCOCC3)n2)c(C(F)(F)F)n1 [Example 21, (3aR,6aR)-3-(2′-amino-2-morpholino-4′-(trifluoromethyl)-[4,5′-bipyrimidin]-6-yl)-tetrahydrofuro[3,4-d]oxazol-2(3H)-one]"
3,8.05,"C[C@H]1[C@@H](CCO)OC(=O)N1c1cc(-c2cnc(N)nc2C(F)(F)F)nc(N2CCOCC2)n1 [Example 23, (4S,5R)-3-(2′-Amino-2-morpholino-4′-(trifluoromethyl)-[4,5′-bipyrimidin]-6-yl)-5-(2-hydroxyethyl)-4-methyloxazolidin-2-one]"

# Second part, the compound before the results:
row,Compound,pIC50
1,"[2H]C1([2H])OC([2H])([2H])C([2H])([2H])N(c2nc(-c3cnc(N)nc3C(F)(F)F)cc(N3C(=O)OC[C@@H]3C)n2)C1([2H])[2H] [Example 17, (S)-3-(2′-amino-2-D8-morpholino-4′-(trifluoromethyl)-[4,5′-bipyrimidin]-6-yl)-4-methyloxazolidin-2-one]",8.10
2,"C[C@H]1OC(=O)N(c2cc(-c3cnc(N)nc3C(F)(F)F)nc(N3CCOCC3)n2)[C@H]1CO [Example 18, (4S,5R)-3-(2′-Amino-2-morpholin-4-yl-4′-trifluoromethyl-[4,5′]bipyrimidinyl-6-yl)-4-hydroxymethyl-5-methyl-oxazolidin-2-one]",8.10
3,"C[C@H]1[C@@H](CO)OC(=O)N1c1cc(-c2cnc(N)nc2C(F)(F)F)nc(N2CCOCC2)n1 [Example 19, (4S,5S)-3-(2′-Amino-2-morpholin-4-yl-4′-trifluoromethyl-[4,5′]bipyrimidinyl-6-yl)-5-hydroxymethyl-4-methyl-oxazolidin-2-one]",8.05
